Test results as given in the NIST ThermoML archive (doi:10.1016/j.fluid.2008.03.012).

Assay: excess molar enthalpy (molar enthalpy of mixing); xn = mol fraction of the nth substance listed
Conditions: Liquid, Flow calorimetry

CCOC(=O)CC(C)=O [ethyl 3-oxobutanoate] + CCO
excess molar enthalpy [kJ/mol]
Conditions	298.15 K	313.15 K	328.15 K
100 kPa, x1 = 0.0999	0.744	0.847	0.907
100 kPa, x1 = 0.1997	1.2	1.36	1.5
100 kPa, x1 = 0.2994	1.49	1.68	1.86
100 kPa, x1 = 0.3495	1.59	1.8	1.98
100 kPa, x1 = 0.3999	1.66	1.88	2.06
100 kPa, x1 = 0.4501	1.7	1.91	2.1
100 kPa, x1 = 0.4995	1.71	1.92	2.1
100 kPa, x1 = 0.5492	1.69	1.9	2.07
100 kPa, x1 = 0.6008	1.65	1.84	1.99
100 kPa, x1 = 0.6501	1.58	1.75	1.88
100 kPa, x1 = 0.7008	1.48	1.62	1.74
100 kPa, x1 = 0.8006	1.15	1.24	1.31
100 kPa, x1 = 0.9002	0.657	0.703	0.712
10000 kPa, x1 = 0.0998	0.725	0.845	0.898
10000 kPa, x1 = 0.1995	1.17	1.36	1.47
10000 kPa, x1 = 0.2992	1.46	1.68	1.82
10000 kPa, x1 = 0.3493	1.55	1.8	1.94
10000 kPa, x1 = 0.3996	1.62	1.87	2.01
10000 kPa, x1 = 0.4498	1.66	1.9	2.05
10000 kPa, x1 = 0.4992	1.67	1.92	2.05
10000 kPa, x1 = 0.5489	1.66	1.89	2.01
10000 kPa, x1 = 0.6005	1.61	1.83	1.94
10000 kPa, x1 = 0.6499	1.54	1.75	1.83
10000 kPa, x1 = 0.7005	1.44	1.62	1.69
10000 kPa, x1 = 0.8004	1.12	1.24	1.26
10000 kPa, x1 = 0.9001	0.629	0.699	0.701

CCOC(=O)CC(C)=O [ethyl 3-oxobutanoate] + CO
excess molar enthalpy [kJ/mol]
Conditions	298.15 K	313.15 K	328.15 K
100 kPa, x1 = 0.0998	0.503	0.563	0.612
100 kPa, x1 = 0.2002	0.845	0.949	1.02
100 kPa, x1 = 0.2994	1.07	1.19	1.29
100 kPa, x1 = 0.3505	1.15	1.28	1.39
100 kPa, x1 = 0.3995	1.2	1.33	1.45
100 kPa, x1 = 0.4495	1.23	1.36	1.48
100 kPa, x1 = 0.4998	1.25	1.38	1.49
100 kPa, x1 = 0.5495	1.24	1.36	1.47
100 kPa, x1 = 0.5997	1.21	1.33	1.43
100 kPa, x1 = 0.65	1.15	1.27	1.35
100 kPa, x1 = 0.6995	1.07	1.17	1.25
100 kPa, x1 = 0.7994	0.832	0.884	0.936
100 kPa, x1 = 0.8982	0.465	0.479	0.502
10000 kPa, x1 = 0.0996	0.484	0.555	0.606
10000 kPa, x1 = 0.1999	0.822	0.941	1.02
10000 kPa, x1 = 0.299	1.04	1.18	1.29
10000 kPa, x1 = 0.35	1.11	1.27	1.38
10000 kPa, x1 = 0.399	1.16	1.33	1.45
10000 kPa, x1 = 0.449	1.18	1.36	1.48
10000 kPa, x1 = 0.4993	1.2	1.37	1.49
10000 kPa, x1 = 0.5489	1.18	1.36	1.47
10000 kPa, x1 = 0.5992	1.15	1.32	1.42
10000 kPa, x1 = 0.6495	1.09	1.26	1.35
10000 kPa, x1 = 0.699	1.01	1.14	1.24
10000 kPa, x1 = 0.799	0.76	0.875	0.931
10000 kPa, x1 = 0.898	0.412	0.472	0.495
